Data taken from patent US20240300932A1, “N-PHENYLIMINE DERIVATIVE AND PREPARATION METHOD AND USE THEREOF” (Guizhou University, priority 2023, published 2024).

Tests used:
Assay in all cases: Post-emergence herbicidal activity test (stem and leaf spray, pot culture)
Assay type in all cases: in vivo
Conditions in all cases: 3 weeks after spraying
Trifoliumre pensL. = system: Trifoliumre pensL.
Summary of the method: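 Rates of 10, 5 and 2.5 g/mu were applied in a single spray-tower treatment to 2–3-leaf plants, thinned to 10 per pot. Formulation: acetone solution, Tween 80, 1.5 L/ha methyl oleate synergist. Weed response assessed after 3 further greenhouse weeks; mean of three experiments.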

Portulaca oleracea = system: Portulaca oleracea
Summary of the method: (§1)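 Seeds soaked 6 h at 25 °C, germinated at 28 °C, sown in loam pots and thinned to 10 plants/pot. At 2–3 leaves, plants received a single spray-tower application of 10, 5 or 2.5 g/mu. Fresh-weight control was graded 0–5 after 3 weeks.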

Setaria viridis = system: Setaria viridis
Summary of the method: as §1

Abutilon theophrasti = system: Abutilon theophrasti
Summary of the method: as §1

Amaranthus retroflexus = system: Amaranthus retroflexus
Summary of the method: as §1

Echinochloa crusgalli = system: Echinochloa crusgalli
Summary of the method: as §1

| Compound | Post-emergence herbicidal activity, Trifoliumre pensL. (grade) (Trifoliumre pensL.; dosage 2.5 g/mu) | Post-emergence herbicidal activity, Trifoliumre pensL. (grade) (Trifoliumre pensL.; dosage 5 g/mu) | Post-emergence herbicidal activity, Trifoliumre pensL. (grade) (Trifoliumre pensL.; dosage 10 g/mu) | Post-emergence herbicidal activity, P. oleracea (grade) (Portulaca oleracea; dosage 2.5 g/mu) | Post-emergence herbicidal activity, P. oleracea (grade) (Portulaca oleracea; dosage 5 g/mu) | Post-emergence herbicidal activity, P. oleracea (grade) (Portulaca oleracea; dosage 10 g/mu) | Post-emergence herbicidal activity, S. viridis (grade) (Setaria viridis; dosage 2.5 g/mu) | Post-emergence herbicidal activity, S. viridis (grade) (Setaria viridis; dosage 5 g/mu) | Post-emergence herbicidal activity, S. viridis (grade) (Setaria viridis; dosage 10 g/mu) | Post-emergence herbicidal activity, A. theophrasti (grade) (Abutilon theophrasti; dosage 2.5 g/mu) | Post-emergence herbicidal activity, A. theophrasti (grade) (Abutilon theophrasti; dosage 5 g/mu) | Post-emergence herbicidal activity, A. theophrasti (grade) (Abutilon theophrasti; dosage 10 g/mu) | Post-emergence herbicidal activity, A. retroflexus (grade) (Amaranthus retroflexus; dosage 2.5 g/mu) | Post-emergence herbicidal activity, A. retroflexus (grade) (Amaranthus retroflexus; dosage 5 g/mu) | Post-emergence herbicidal activity, A. retroflexus (grade) (Amaranthus retroflexus; dosage 10 g/mu) | Post-emergence herbicidal activity, E. crusgalli (grade) (Echinochloa crusgalli; dosage 2.5 g/mu) | Post-emergence herbicidal activity, E. crusgalli (grade) (Echinochloa crusgalli; dosage 5 g/mu) | Post-emergence herbicidal activity, E. crusgalli (grade) (Echinochloa crusgalli; dosage 10 g/mu) |
| --- | --- | --- | --- | --- | --- | --- | --- | --- | --- | --- | --- | --- | --- | --- | --- | --- | --- | --- |
| O=C1C2=C(CCCC2)C(=O)N1c1cc(OCc2nc(-c3cccs3)no2)c(Cl)cc1F [Compound A19] | 4 (Grade 4: the growth control rate is greater than or equal to 60% and less than 85%) | 5 (Grade 5: the growth control rate is greater than or equal to 85%) | 5 (Grade 5: the growth control rate is greater than or equal to 85%) | 4 (Grade 4: the growth control rate is greater than or equal to 60% and less than 85%) | 5 (Grade 5: the growth control rate is greater than or equal to 85%) | 5 (Grade 5: the growth control rate is greater than or equal to 85%) | 2 (Grade 2: the growth control rate is greater than or equal to 20% and less than 40%) | 3 (Grade 3: the growth control rate is greater than or equal to 40% and less than 60%) | 4 (Grade 4: the growth control rate is greater than or equal to 60% and less than 85%) | 5 (Grade 5: the growth control rate is greater than or equal to 85%) | 5 (Grade 5: the growth control rate is greater than or equal to 85%) | 5 (Grade 5: the growth control rate is greater than or equal to 85%) | 5 (Grade 5: the growth control rate is greater than or equal to 85%) | 5 (Grade 5: the growth control rate is greater than or equal to 85%) | 5 (Grade 5: the growth control rate is greater than or equal to 85%) | 1 (Grade 1: the growth control rate is greater than or equal to 5% and less than 20%) | 2 (Grade 2: the growth control rate is greater than or equal to 20% and less than 40%) | 3 (Grade 3: the growth control rate is greater than or equal to 40% and less than 60%) |
| Cc1cc(F)ccc1-c1noc(COc2cc(N3C(=O)C4=C(CCCC4)C3=O)c(F)cc2Cl)n1 [Compound A23] | 4 (Grade 4: the growth control rate is greater than or equal to 60% and less than 85%) | 5 (Grade 5: the growth control rate is greater than or equal to 85%) | 5 (Grade 5: the growth control rate is greater than or equal to 85%) | 4 (Grade 4: the growth control rate is greater than or equal to 60% and less than 85%) | 5 (Grade 5: the growth control rate is greater than or equal to 85%) | 5 (Grade 5: the growth control rate is greater than or equal to 85%) | 2 (Grade 2: the growth control rate is greater than or equal to 20% and less than 40%) | 3 (Grade 3: the growth control rate is greater than or equal to 40% and less than 60%) | 4 (Grade 4: the growth control rate is greater than or equal to 60% and less than 85%) | 5 (Grade 5: the growth control rate is greater than or equal to 85%) | 5 (Grade 5: the growth control rate is greater than or equal to 85%) | 5 (Grade 5: the growth control rate is greater than or equal to 85%) | 5 (Grade 5: the growth control rate is greater than or equal to 85%) | 5 (Grade 5: the growth control rate is greater than or equal to 85%) | 5 (Grade 5: the growth control rate is greater than or equal to 85%) | 1 (Grade 1: the growth control rate is greater than or equal to 5% and less than 20%) | 2 (Grade 2: the growth control rate is greater than or equal to 20% and less than 40%) | 3 (Grade 3: the growth control rate is greater than or equal to 40% and less than 60%) |
| O=C1C2=C(CCCC2)C(=O)N1c1cc(OCc2nc(-c3ccccc3Br)no2)c(Cl)cc1F [Compound A4] | 4 (Grade 4: the growth control rate is greater than or equal to 60% and less than 85%) | 5 (Grade 5: the growth control rate is greater than or equal to 85%) | 5 (Grade 5: the growth control rate is greater than or equal to 85%) | 4 (Grade 4: the growth control rate is greater than or equal to 60% and less than 85%) | 5 (Grade 5: the growth control rate is greater than or equal to 85%) | 5 (Grade 5: the growth control rate is greater than or equal to 85%) | 2 (Grade 2: the growth control rate is greater than or equal to 20% and less than 40%) | 3 (Grade 3: the growth control rate is greater than or equal to 40% and less than 60%) | 4 (Grade 4: the growth control rate is greater than or equal to 60% and less than 85%) | 5 (Grade 5: the growth control rate is greater than or equal to 85%) | 5 (Grade 5: the growth control rate is greater than or equal to 85%) | 5 (Grade 5: the growth control rate is greater than or equal to 85%) | 5 (Grade 5: the growth control rate is greater than or equal to 85%) | 5 (Grade 5: the growth control rate is greater than or equal to 85%) | 5 (Grade 5: the growth control rate is greater than or equal to 85%) | 1 (Grade 1: the growth control rate is greater than or equal to 5% and less than 20%) | 2 (Grade 2: the growth control rate is greater than or equal to 20% and less than 40%) | 3 (Grade 3: the growth control rate is greater than or equal to 40% and less than 60%) |
| O=C1C2=C(CCCC2)C(=O)N1c1cc(OCc2nnc(-c3ccccc3[N+](=O)[O-])o2)c(Cl)cc1F [Compound B8] | 5 (Grade 5: the growth control rate is greater than or equal to 85%) | 5 (Grade 5: the growth control rate is greater than or equal to 85%) | 5 (Grade 5: the growth control rate is greater than or equal to 85%) | 5 (Grade 5: the growth control rate is greater than or equal to 85%) | 5 (Grade 5: the growth control rate is greater than or equal to 85%) | 5 (Grade 5: the growth control rate is greater than or equal to 85%) | 2 (Grade 2: the growth control rate is greater than or equal to 20% and less than 40%) | 3 (Grade 3: the growth control rate is greater than or equal to 40% and less than 60%) | 4 (Grade 4: the growth control rate is greater than or equal to 60% and less than 85%) | 5 (Grade 5: the growth control rate is greater than or equal to 85%) | 5 (Grade 5: the growth control rate is greater than or equal to 85%) | 5 (Grade 5: the growth control rate is greater than or equal to 85%) | 5 (Grade 5: the growth control rate is greater than or equal to 85%) | 5 (Grade 5: the growth control rate is greater than or equal to 85%) | 5 (Grade 5: the growth control rate is greater than or equal to 85%) | 1 (Grade 1: the growth control rate is greater than or equal to 5% and less than 20%) | 2 (Grade 2: the growth control rate is greater than or equal to 20% and less than 40%) | 3 (Grade 3: the growth control rate is greater than or equal to 40% and less than 60%) |
